According to the supplement of paper PMC10331698:
± gives the standard deviation of the averaged measurements.

How the values were obtained:
Experiment in all cases: level (log10 ratio to DMSO vehicle control); higher = higher biomarker level / cell amount than vehicle control
[1] = compound: C=C(C)C(=O)OCC(F)(F)C(F)(F)C(F)(F)F [2,2,3,3,4,4,4-Heptafluorobutyl methacrylate]; conditions: in DMSO
Protocol: (§1)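 BioMAP Diversity Plus panel of 12 human primary cell co-culture systems (3C, 4H, LPS, SAg, BT, BF4T, BE3C, CASM3C, HDF3CGF, KF3CT, MyoF, Mphg). Compounds were added 1 h before stimulation and left for 24 h (MyoF 48 h; BT 72 h for soluble read-outs or 6 d for IgG). Biomarkers were read by ELISA, cytotoxicity by SRB, PBMC viability and proliferation by Alamar Blue. Each well value was divided by the mean of 8 DMSO control wells on the same plate and log10 transformed; duplicate blinded samples were tested at 4 concentrations.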

[2] = compound: O=C(O)C(F)(F)C(F)(F)C(F)(F)C(F)(F)C(F)(F)C(F)(F)C(F)(F)F [Ammonium perfluorooctanoate]; conditions: in DMSO
Protocol: as §1

[3] = compound: OCCCC(F)(F)C(F)(F)C(F)(F)C(F)(F)C(F)(F)C(F)(F)C(F)(F)C(F)(F)F [3-(Perfluorooctyl)propanol]; conditions: 6700 nM; in DMSO
Protocol: as §1

Test System	level (log10) ([1]; 6700 nM)	level (log10) ([1]; 20000 nM)	level (log10) ([1]; 60000 nM)	level (log10) ([2]; 6700 nM)	level (log10) ([2]; 20000 nM)	level (log10) ([2]; 60000 nM)	level (log10) [3]
3C:CCL2/MCP-1	-0.0015 ± 0.0035	-0.009 ± 0.0071	0.01 ± 0.027	-0.002 ± 0.0099	0.004 ± 0.025	0.0315 ± 0.035	0.003 ± 0.013
3C:CD54/ICAM-1	0.002 ± 0.0028	0.007 ± 0.0042	0.0135 ± 0.005	0.004 ± 0.014	0.0065 ± 0.0064	0.0065 ± 0.00071	0.0095 ± 0.0064
3C:CD62E/E-Selectin	-0.005 ± 0.011	-0.014 ± 0.0042	-0.0015 ± 0.013	0.006 ± 0.011	-0.007 ± 0.017	0.0085 ± 0.046	-0.024 ± 0.0099
3C:CD106/VCAM-1	0.0145 ± 0.029	0.007 ± 0.016	0.017 ± 0.011	0.004 ± 0.03	-0.0025 ± 0.03	0.019 ± 0.041	-0.021
3C:CD141/Thrombomodulin	-0.009 ± 0.0099	-0.0145 ± 0.013	0.002 ± 0.0071	-0.01 ± 0.017	-0.0185 ± 0.012	-0.0375 ± 0.032	-0.0055 ± 0.019
3C:CD142/Tissue Factor	-0.012 ± 0.021	-0.017 ± 0.0014	0.001 ± 0.0099	-0.0145 ± 0.0035	-0.0045 ± 0.0021	-0.036 ± 0.017	-0.054 ± 0.016
BE3C:Keratin 8/18	-0.0165 ± 0.056	-0.002 ± 0.05	-0.003 ± 0.03	-0.0195 ± 0.012	-0.0215 ± 0.012	-0.0225 ± 0.0035	0.0085 ± 0.033
BE3C:MMP-1	-0.012 ± 0.0014	-0.0055 ± 0.015	0.048 ± 0.014	0.034 ± 0.018	0.113 ± 0.014	0.283 ± 0.041	0.064 ± 0.0042
BE3C:MMP-9	0.0155 ± 0.0092	-0.0075 ± 0.016	0.032 ± 0.025	-0.0145 ± 0.0064	0.047 ± 0.0042	0.0375 ± 0.021	0.036 ± 0.038
BE3C:PAI-I	-0.0505 ± 0.043	-0.003 ± 0.055	0.017 ± 0.064	0.014 ± 0.023	0.0045 ± 0.005	0.0255 ± 0.016	-0.008 ± 0.0014
BE3C:SRB	-0.003 ± 0.011	-0.0095 ± 0.0064	-0.001 ± 0.0071	-0.0045 ± 0.005	-0.003	-0.0145 ± 0.0078	-0.002 ± 0.0028
BE3C:tPA	-0.0095 ± 0.029	-0.016 ± 0.016	-0.021 ± 0.027	-0.029 ± 0.045	-0.015 ± 0.02	-0.07 ± 0.0085	0.0365 ± 0.012
BE3C:uPA	-0.005 ± 0.013	0.005 ± 0.011	-0.002 ± 0.025	0.002 ± 0.0071	-0.002 ± 0.0042	0.018 ± 0.0085	-0.005 ± 0.0085
CASM3C:CCL2/MCP-1	0.005 ± 0.013	0.0045 ± 0.0035	0.013 ± 0.0071	0.008 ± 0.017	-0.004 ± 0.0014	0.051 ± 0.033	-0.0175 ± 0.016
CASM3C:CD87/uPAR	-0.018 ± 0.0099	-0.0235 ± 0.029	-0.018 ± 0.0028	0.003 ± 0.03	0.008 ± 0.0028	0.0045 ± 0.023	-0.021 ± 0.0085
CASM3C:CD106/VCAM-1	0.0205 ± 0.013	-0.006 ± 0.04	0.001 ± 0.02	0.0115 ± 0.015	-0.0085 ± 0.013	-0.021 ± 0.025	-0.0895 ± 0.019
CASM3C:CD141/Thrombomodulin	0.0205 ± 0.011	0 ± 0.042	0.0115 ± 0.036	0.014 ± 0.035	0.0205 ± 0.036	0.0465 ± 0.032	0.0455 ± 0.019
CASM3C:CD142/Tissue Factor	-0.006 ± 0.021	0 ± 0.038	0.0045 ± 0.022	0.005 ± 0.028	-0.009 ± 0.025	-0.01 ± 0.024	-0.007 ± 0.054
CASM3C:CXCL8/IL-8	0.0035 ± 0.012	-0.0085 ± 0.032	0.012 ± 0.024	0.005 ± 0.0099	0.0085 ± 0.013	0.049 ± 0.033	-0.008 ± 0.0099
CASM3C:CXCL9/MIG	-0.001 ± 0.011	0.005 ± 0.0099	0.0195 ± 0.0021	-0.001 ± 0.016	0.017 ± 0.017	0.0225 ± 0.028	-0.042 ± 0.0028

Test System	level (log10) ([1]; 6700 nM)	level (log10) ([1]; 20000 nM)	level (log10) ([1]; 60000 nM)	level (log10) ([2]; 6700 nM)	level (log10) ([2]; 20000 nM)	level (log10) ([2]; 60000 nM)	level (log10) [3]
CASM3C:HLA-DR	-0.0035 ± 0.0078	0.0125 ± 0.0021	0.0135 ± 0.015	0.0085 ± 0.012	-0.0055 ± 0.0021	0.0015 ± 0.023	-0.0215 ± 0.005
CASM3C:IL-6	0.004 ± 0.031	0.0105 ± 0.028	0.022 ± 0.0071	-0.0035 ± 0.025	-0.024 ± 0.048	-0.018 ± 0.05	-0.0335 ± 0.0021
CASM3C:LDLR	-0.0045 ± 0.036	0.006 ± 0.0042	0.0055 ± 0.0078	-0.0015 ± 0.018	0 ± 0.031	0.0085 ± 0.039	0.0385 ± 0.023
CASM3C:M-CSF	0.003 ± 0.016	0.0245 ± 0.019	0.024 ± 0.0099	-0.0045 ± 0.0021	0.011 ± 0.028	0.015 ± 0.05	-0.0325 ± 0.025
CASM3C:PAI-I	-0.003 ± 0.0042	0.0005 ± 0.0021	0.001 ± 0.0042	0.0005 ± 0.00071	-0.001 ± 0.0028	0.0085 ± 0.0078	-0.0165 ± 0.0092
CASM3C:Proliferation	-0.012 ± 0.027	-0.0015 ± 0.0035	0.0215 ± 0.012	0.0125 ± 0.018	-0.007 ± 0.045	-0.021 ± 0.0071	-0.026 ± 0.033
CASM3C:SRB	0.0045 ± 0.0021	-0.0005 ± 0.0092	-0.004 ± 0.0057	-0.0015 ± 0.00071	-0.001 ± 0.0099	-0.0005 ± 0.00071	-0.008 ± 0.0042
CASM3C:Serum Amyloid A	0.0145 ± 0.0078	0.03 ± 0.021	0.0075 ± 0.0064	0.0345 ± 0.022	0.015 ± 0.0057	0.0345 ± 0.012	-0.005 ± 0.024
HDF3CGF:CCL2/MCP-1	0.0055 ± 0.012	-0.001 ± 0.0057	-0.0115 ± 0.018	-0.0285 ± 0.0092	-0.0605 ± 0.0078	-0.068 ± 0.014	-0.284 ± 0.03
HDF3CGF:CD54/ICAM-1	-0.008 ± 0.0071	-0.013 ± 0.0071	-0.007 ± 0.0099	-0.0145 ± 0.015	-0.043 ± 0.0057	-0.054 ± 0.016	-0.113 ± 0.15
HDF3CGF:CD106/VCAM-1	-0.023 ± 0.0042	-0.017 ± 0.03	-0.07 ± 0.028	-0.0315 ± 0.011	-0.0065 ± 0.023	-0.037 ± 0.0071	-0.244 ± 0.013
HDF3CGF:CXCL8/IL-8	0.0005 ± 0.0021	-0.0045 ± 0.0092	0.006 ± 0.0028	-0.0025 ± 0.005	0.002 ± 0.0042	0.003	-0.0145 ± 0.0092
HDF3CGF:CXCL9/MIG	-0.0185 ± 0.005	-0.024 ± 0.0071	-0.0395 ± 0.011	-0.0195 ± 0.0092	-0.0085 ± 0.025	-0.0915 ± 0.047	-0.0895 ± 0.054
HDF3CGF:CXCL10/IP-10	-0.017 ± 0.0071	-0.021 ± 0.0071	-0.024 ± 0.016	-0.015 ± 0.0042	-0.023 ± 0.016	-0.0495 ± 0.04	-0.275 ± 0.057
HDF3CGF:CXCL11/I-TAC	-0.0085 ± 0.023	-0.01 ± 0.034	-0.0405 ± 0.018	0.014 ± 0.0014	0.037 ± 0.02	0.0555 ± 0.033	-0.367 ± 0.096
HDF3CGF:Collagen I	-0.0145 ± 0.0021	-0.0495 ± 0.064	0.016 ± 0.033	0.0285 ± 0.019	0.01 ± 0.021	-0.0645 ± 0.088	0.161 ± 0.077
HDF3CGF:Collagen III	-0.0545 ± 0.1	-0.075 ± 0.031	-0.034 ± 0.048	0.0555 ± 0.032	-0.1 ± 0.048	-0.142 ± 0.0021	-0.12 ± 0.0092
HDF3CGF:EGFR	-0.018 ± 0.09	-0.0115 ± 0.057	-0.064 ± 0.041	-0.095 ± 0.14	-0.005 ± 0.05	-0.105 ± 0.087	-0.31 ± 0.071
HDF3CGF:M-CSF	0.0085 ± 0.00071	0.0255 ± 0.0078	0.0135 ± 0.029	0.002 ± 0.037	0.034 ± 0.017	-0.049 ± 0.042	-0.258 ± 0.0092
